Results as given in patent US7868013B2, “Cycloalkyl substituted pyrimidinediamine compounds and their uses” (Rigel Pharmaceuticals, Inc., priority 2004, dated 2011).
Where a name gives a salt, the structure may show the parent alone. Read-outs that look alike come from different tables or passages of the source.

Columns and labels:
A549 (lung carcinoma) = assay: In vitro antiproliferation assay, A549 cells (TABLE 1 6 point assay; TABLE 2); assay type: cell-based
Procedure: (§1) Certain compounds were tested against other cell types for their ability to inhibit proliferation in standard antiproliferation assays.

[1] = tested on: H1299 (non-small cell lung carcinoma); assay: In vitro antiproliferation assay, H1299 cells (TABLE 1 6 point assay; TABLE 2); assay type: cell-based
Procedure: as §1

[2] = Homo sapiens, A549, 6 point assay, A549 cells, read-out: IC50, A549 cells
[3] = Homo sapiens, NCI-H1299, 6 point assay, H1299 cells, read-out: IC50, H1299 cells
[4] = Homo sapiens, A549, A549 cells, 6 point assay, read-out: A549, 6pt (IC50, inhibition of proliferation)
[5] = Homo sapiens, NCI-H1299, H1299 cells, 6 point assay, read-out: H1299, 6pt (IC50, inhibition of proliferation)

| SMILES | IC50 (A549 (lung carcinoma); [2]) | IC50 [1, 3] | IC50 (A549 (lung carcinoma); [4]) | IC50 [1, 5] | further results |
| --- | --- | --- | --- | --- | --- |
| Cc1cc(Nc2ncc(F)c(NC3(C(N)=O)CCCC3)n2)ccc1N1CCN(C)CC1 [compound 248, N4-(1-Aminocarbonylcyclopent-1-yl)-5-fluoro-N2-[3-methyl-4-(4-methylpiperazin-1-yl)phenyl]-2,4-pyrimidinediamine] | > 10000 nM | > 10000 nM |  |  |  |
| Cc1cc(Nc2ncc(F)c(N[C@H]3[C@@H](C(N)=O)[C@@H]4C=C[C@H]3C4)n2)ccc1N1CCN(C)CC1 [compound 121, (1R,2R,3S,4S)-N4-(3-Aminocarbonylbicyclo[2.2.1]hept-5-ene-2-yl)-5-fluoro-N2-[3-methyl-4-(4-methylpiperazin-1-yl)phenyl]-2,4-pyrimidinediamine Adipic Acid Salt] |  |  | ≤ 100 nM | ≤ 100 nM |  |
| CN1CCN(c2ccc(Nc3ncc(F)c(NC4CCCC4C(N)=O)n3)cc2)CC1 (stereo not shown) [compound 194, N4-(2-Carboxamidocyclopentyl)-5-fluoro-N2-[4-(4-methylpiperazino)phenyl]-2,4-pyrimidinediamine] | 100 to 1000 nM | 100 to 1000 nM |  |  |  |
| CNC(=O)C1C2C=CC(C2)C1Nc1nc(Nc2ccc3c(c2)CCN3S(C)(=O)=O)ncc1F (racemic) [compound 181, Racemic-(2-exo,3-exo)-5-fluoro-N4-[3-methylaminocarbonylbicyclo[2.2.1]hept-5-en-2-yl)-N2-[1-methylsulfonyl-2,3-dihydroindol-5-yl]-2,4-pyrimidinediamine] |  |  | ≤ 100 nM | ≤ 100 nM |  |
| Cc1cc(Nc2ncc(F)c(NC3CCCC3C(N)=O)n2)ccc1N1CCN(C)CC1 (stereo not drawn) [compound 206, (cis)-N4-(2-Carboxamidocyclopent-1-yl)-5-fluoro-N2-[3-methyl-4-(4-methylpiperazino)phenyl]-2,4-pyrimidinediamine] | 100 to 1000 nM | 100 to 1000 nM |  |  | IC50 (A549 (lung carcinoma); Homo sapiens, A549, A549, read-out: In Vitro IC50): ≤ 1000 nM |
| COc1ccc(C(C)NC(=O)[C@H]2[C@@H](Nc3nc(Nc4ccc(N5CCN(C)CC5)c(C)c4)ncc3F)[C@@H]3C=C[C@H]2C3)cc1 (stereo partly drawn) [compound 124, (1S,2S,3R,4R)-5-Fluoro-N4-(3-(R)-4-methoxy-alpha-methylbenzylaminocarbonylbicyclo[2.2.1]hept-5-en-2-yl]-N2-(3-methyl-4-(4-methylpiperazin-1-yl)phenyl]-2,4-pyrimidinediamine] |  |  | 100 to 1000 nM | 100 to 1000 nM |  |
| CN(C)CCN1CCc2cc(Nc3ncc(F)c(NC4C5C=CC(C5)C4C(=O)NC4CC4)n3)ccc21 (racemic) [compound 170, Racemic-(2-exo,3-exo)-N4-[3-cyclopropylaminocarbonylbicyclo[2.2.1]hept-5-en-2-yl)-N2-[1-(2-dimethylaminoethyl)-2,3-dihydroindol-5-yl]-5-fluoro-2,4-pyrimidinediamine] |  |  | ≤ 100 nM | ≤ 100 nM |  |
| Cc1cc(Nc2ncc(F)c(N[C@H]3C=CC[C@H]3C(N)=O)n2)ccc1N1CCN(C)CC1 (racemic) [Compound 286, Racemic-cis-N4-(2-aminocarbonylcyclopent-4-en-1-yl)-5-fluoro-N2-[3-methyl-4-(4-methylpiperazin-1-yl)phenyl]-2,4-pyrimidinediamine] | 100 to 1000 nM | 100 to 1000 nM |  |  |  |
| CN1CCN(C(=O)CCc2ccc(Nc3ncc(F)c(N[C@H]4CCC[C@H]4C(N)=O)n3)cc2)CC1 (racemic) [compound 280, Racemic-cis-N4-(2-aminocarbonylcyclopent-1-yl)-5-fluoro-N2-{4-[(4-methylpiperazin-1-yl)-propan-1-one-3-yl]}phenyl-2,4-pyrimidinediamine] | 1000 to 10000 nM | 1000 to 10000 nM |  |  |  |
| Cc1cc(Nc2ncc(F)c(N[C@@H]3CCC[C@H]3C(=O)O)n2)ccc1N1CCN(C)CC1 [compound 211, (1R,2R)-5-fluoro-N4-(2-hydroxycarbonylcyclopent-1-yl)-N2-[3-methyl-4-(4-methylpiperazino)phenyl]-2,4-pyrimidinediamine] | > 10000 nM | > 10000 nM |  |  |  |
| CCS(=O)(=O)N1CCN(c2ccc(Nc3ncc(F)c(NC4C5C=CC(C5)C4C(N)=O)n3)cc2C)CC1 (racemic) [compound 261, Racemic-(2-exo,3-exo)-N4-(3-aminocarbonylbicyclo[2.2.1]hept-5-en-2-yl)-N2-[4-(4-ethylsulfonylpiperazin-1-yl)-3-methylphenyl]-5-fluoro-2,4-pyrimidinediamine] | ≤ 100 nM | ≤ 100 nM |  |  |  |
| Cc1cc(Nc2ncc(F)c(NC3(C(=O)NC4CC4)CCCC3)n2)ccc1N1CCN(C)CC1 [compound 247, N4-(1-Cyclopropylaminocarbonylcyclopent-1-yl)-5-fluoro-N2-[3-methyl-4-(4-methylpiperazin-1-yl)phenyl]-2,4-pyrimidinediamine] | > 10000 nM | > 10000 nM |  |  |  |
| CCS(=O)(=O)N1CCN(c2ccc(Nc3ncc(F)c(N[C@H]4[C@@H](C(N)=O)[C@@H]5C=C[C@H]4C5)n3)cc2C)CC1 [compound 270, (1R,2R,3S,4S)-N4-(3-aminocarbonylbicyclo[2.2.1]hept-5-ene-2-yl)-N2-[3-methyl-4-(4-ethylsulfonylpiperazin-1-yl)phenyl]-5-fluoro-2,4-pyrimidinediamine Bis Hydrochloride Salt] |  |  |  |  | IC50 (A549 (lung carcinoma); 6 point assay, A549 cells, Bis Hydrochloride Salt, read-out: IC50, A549 cells): 1000 to 10000 nM; IC50 ([1]; 6 point assay, H1299 cells, Bis Hydrochloride Salt, read-out: IC50, H1299 cells): 1000 to 10000 nM |

The next lines start with results.

| IC50 (A549 (lung carcinoma); [2]) | IC50 [1, 3] | IC50 (A549 (lung carcinoma); [4]) | IC50 [1, 5] | SMILES | further results |
| --- | --- | --- | --- | --- | --- |
| ≤ 100 nM | ≤ 100 nM |  |  | COc1cc(Nc2ncc(F)c(NC3C4C=CC(C4)C3C(N)=O)n2)ccc1N1CCN(C)CC1 (racemic) [compound 256, Racemic-(2-exo,3-exo)-N4-(3-aminocarbonylbicyclo[2.2.1]hept-5-en-2-yl)-5-fluoro-N2-[3-methoxy-4-(4-methylpiperazin-1-yl)phenyl]-2,4-pyrimidinediamine] |  |
| ≤ 100 nM | ≤ 100 nM |  |  | NC(=O)[C@@H]1[C@H](Nc2nc(Nc3cccc(C4CCNCC4)c3)ncc2F)[C@H]2C=C[C@@H]1C2 [compound 274, (1R,2R,3S,4S)-N4-(3-Aminocarbonylbicyclo[2.2.1]hept-5-en-2-yl)-5-fluoro-N2-[3-(piperidin-4-yl)phenyl]-2,4-pyrimidinediamine] |  |
|  |  | ≤ 100 nM | ≤ 100 nM | CN1CCC(Oc2ccc(Nc3ncc(F)c(N[C@H]4[C@@H](C(N)=O)[C@@H]5C=C[C@H]4C5)n3)cc2)CC1 [compound 146, (1R,2R,3S,4S)-N4-(3-Aminocarbonylbicyclo[2.2.1]hept-5-en-2-yl)-5-fluoro-N2-[4-(1-methylpiperidin-4-yloxy)phenyl]-2,4-pyrimidinediamine] |  |
|  |  | ≤ 100 nM | ≤ 100 nM | CN1CCC(c2cccc(Nc3ncc(F)c(N[C@H]4[C@@H](C(N)=O)[C@@H]5C=C[C@H]4C5)n3)c2)CC1 [compound 145, (1R,2R,3S,4S)-N4-(3-Aminocarbonylbicyclo[2.2.1]hept-5-en-2-yl)-5-fluoro-N2-[3-(1-methylpiperidin-4-yl)phenyl]-2,4-pyrimidinediamine Mono- Hydrochloric Acid Salt] |  |
|  |  | 100 to 1000 nM | 100 to 1000 nM | Cn1ccc2cc(Nc3ncc(F)c(NC4C5C=CC(C5)C4C(N)=O)n3)ccc21 (racemic) [compound 161, Racemic-(2-exo,3-exo)-N4-[3-aminocarbonylbicyclo[2.2.1]hept-5-ene-2-yl)-5-fluoro-N2-(1-methylindol-5-yl)-2,4-pyrimidinediamine] |  |
| ≤ 100 nM | ≤ 100 nM |  |  | Cc1cc(Nc2ncc(F)c(NC3C4C=CC(C4)C3C(N)=O)n2)ccc1N1CC2CC1CC2C (racemic) [Compound 285, Racemic-(2-exo,3-exo)-N4-(3-aminocarbonylbicyclo[2.2.1]hept-5-en-2-yl)-5-fluoro-N2-[3-methyl-4-(5-methyl-(1S,4S)-2,5-diazabicyclo[2.2.1]heptan-2-yl)]phenyl-2,4-pyrimidinediamine] |  |
| ≤ 100 nM | ≤ 100 nM |  |  | Cc1cc(Nc2ncc(F)c(NC3C4C=CC(C4)C3C(N)=O)n2)ccc1N1CC(C)OC(C)C1 (racemic) [Compound 284, Racemic-(2-exo,3-exo)-N4-(3-aminocarbonylbicyclo[2.2.1]hept-5-en-2-yl)-N2-[4-(2,6-dimethylmorpholino)-3-methylphenyl]-5-fluoro-2,4-pyrimidinediamine] |  |
|  |  | ≤ 100 nM | ≤ 100 nM | CN1CCC(Oc2ccc(Nc3ncc(F)c(N[C@H]4[C@@H](C(N)=O)[C@@H]5C=C[C@H]4C5)n3)cc2Cl)CC1 [compound 152, (1R,2R,3S,4S)-N4-(3-Aminocarbonylbicyclo[2.2.1]hept-5-en-2-yl)-N2-[3-chloro-4-(1-methylpiperidin-4-yloxy)phenyl]-5-fluoro-2,4-pyrimidinediamine] |  |
|  |  | ≤ 100 nM | ≤ 100 nM | CN(C)CCN1CCOc2cc(Nc3ncc(F)c(N[C@H]4[C@@H](C(N)=O)[C@@H]5C=C[C@H]4C5)n3)ccc21 [compound 189, (1R,2R,3S,4S)-N4-(3-Aminocarbonylbicyclo[2.2.1]hept-5-en-2-yl)-5-fluoro-N2-(1-[2-(dimethylamino)ethyl]-3,4-dihydro-4H-benz[1,4]oxazin-6-yl}-2,4-pyrimidinediamine] |  |
|  |  | ≤ 100 nM | ≤ 100 nM | CN1CCC(Oc2cccc(Nc3ncc(F)c(N[C@H]4[C@@H](C(N)=O)[C@@H]5C=C[C@H]4C5)n3)c2)CC1 [compound 149, (1R,2R,3S,4S)-N4-(3-Aminocarbonylbicyclo[2.2.1]hept-5-en-2-yl)-5-fluoro-N2-[3-(1-methylpiperidin-4-yloxy)phenyl]-2,4-pyrimidinediamine] |  |
| ≤ 100 nM | ≤ 100 nM |  |  | CN1CCN(c2cccc(Nc3ncc(F)c(NC4C5C=CC(C5)C4C(N)=O)n3)c2)CC1 (racemic) [compound 231, Racemic-(2-exo,3-exo)-N4-(3-aminocarbonylbicyclo[2.2.1]hept-5-en-2-yl)-5-fluoro-N2-[3-(4-methylpiperazin-1-yl)]phenyl-2,4-pyrimidinediamine] |  |
